Measurements reported in patent US20230357099A1, “PYRAZOLO [3,4-B] PYRIDINE-4-CARBOXAMIDE NITRIFICATION INHIBITOR” (EUROCHEM ANTWERPTEN, priority 2020, published 2023).
Read-outs that look alike come from different tables or passages of the source.

Columns and labels:
[1] = test system: ABIL (ammonia-binding liquid inoculum), nitrifying microbial enrichment containing both AOA and AOB; assay: Nitrification inhibition assay on ABIL (ammonium consumption); type: cell-based; details: 10 µM compound
[2] = test system: Nitrososphaera viennensis; assay: Nitrification inhibition assay on Nitrososphaera viennensis (nitrite, Griess); type: cell-based, Nitrososphaera viennensis EN76T; details: for activity at 2.5 µM: Nitrososphaera viennensis, 2.5 µM compound, structural variants outside formula (I), read-out: Relative nitrification (%) by Nitrososphaera viennensis treated with 2.5 µM compound
Protocol: Nitrite (NO2—) was measured using the Griess reagent (Product number: G4410, Griess reagent (modified), Sigma-Aldrich). Equal volumes of the sample or a diluted sample and the Griess reagent were mixed a transparent flat bottom multi-well plate and incubated in the dark at room temperature for 10 minutes. Absorbance values at 540 nm were measured spectrophotometrically (EnVision, Perkin Elmer®) and used to calculate the [NO2—] by use of a standard curve.
A liquid culture sample of Nitrososphaera viennensis EN76T was kindly supplied by prof. dr. Christa Schleper (University of Vienna). Cells were grown in fresh water medium (FWM) as described earlier by Tourna et al. (2011). All necessary materials were rinsed with 1 % HCl and washed at least 3 times with MilliQ water. FWM (pH 7.5 (KOH)) contained 17 mM NaCl, 3 mM MgCl2 × 2 H2O, 680 µM CaCl2 × 2 H2O, 1.47 mM KH2PO4 and 6.71 mM KCI. After autoclaving, successively 1 mL non-chelated trace element mixture (101 mM HCl, 488 µM H3BO3, 508 µM MnCl2 × 4 H2O, 803 µM CoCl2 × 6 H2O, 101 µM NiCl2 × 6 H2O, 12 µM CuCl2 × 2 H2O, 503 µM ZnSO4 × 7 H2O and 150 µM Na2MoO4 × 2 H2O), 1 mL Fe-NaEDTA (7.5 mM), 1 mL vitamin solution (20 mg/L biotin, 20 mg/L folic acid, 100 mg/L pyridoxine-HCl, 50 mg/L thiamine-HCl, 50 mg/L riboflavin, 50 mg/L nicotinic acid, 50 mg/L DL-pantothenic acid, 50 mg/L P-aminobenzoic acid, 2 g/L choline chloride and 10 mg/L vitamin B12), 2 mL NaHCO3 (1 M), 2 mL kanamycin (100 mg/mL), 2 mL carbenicillin (100 mg/mL), 3 mL NH4Cl (1 M), 10 mL HEPES buffer (1 M, pH 7.6) and 1 mL Na-pyruvate (0.1 M) were added aseptically. All stock-solutions were filter-sterilized, except the autoclaved non-chelated trace element mixture. Cultures were incubated aerobically at 42° C. without shaking in sterile 250-mL Erlenmeyer flasks or 30-mL cultivation tubes (Product number: 216-1290, Quickstart universal containers STERILIN®, VWR) filled with either 100 or 20 mL FWM and sealed with tape (Micropore™ Surgical Tape 1530-1, 3M™). Late-log phase cultures ([NO2-] ≥ 1 mM) were subcultivated by dilution (1:400) in fresh FWM.
7-day old 100 mL cultures grown in 250-mL Erlenmeyer flasks with a [NO2-] ≥ 1 mM were 5 times overconcentrated in fresh FWM by centrifugation (4000 rpm, 15 min, 5° C.) in 50 mL centrifuge tubes (Cat. No. 430829, CentriStar™ Conical Centrifuge Tubes, Corning®). Per batch, all the cultures were pooled in one sterile Schott bottle. Subsequently, 200 µl/well was dispensed at low pipetting speed in transparent flat bottom 96-well plates (Cat. No. 353072, Falcon® 96 Well Clear Microplate, Corning®) using 150 µl wide-bore tips (two steps of 100 µl) on a Tecan robot (Freedom EVO®, Tecan). 0.5 µl of 99.99 % DMSO (negative control - final concentration 0.25%) and 0.5 µl of 0.04 M PTIO (2-phenyl-4,4,5,5-tetramethylimidazoline-1-oxyl 3-oxide, positive control - final concentration 100 µM) were added manually to the first and last column respectively. Finally, 0.5 µl of candidate nitrification inhibitors (1 mM stock solutions in 99.99% DMSO - final concentration 2.5 µM) were added to the central wells using a pin tool on a Tecan robot (Freedom EVO®, Tecan). In between additions, the pins were washed in sequence with 99.5% DMSO, MilliQ water and 100% ethanol and air-dried. All plates were sealed with tape (Micropore™ Surgical Tape 1530-1, 3M™), stacked per 4 on top of a 96-well plate filled with 100 µl MilliQ per well and covered with aluminum foil. Position effects of the stacks within the incubator were considered. Plates were incubated at 42° C. without shaking. 24 h later, NO2— was measured spectrophotometrically at 540 nm (EnVision, Perkin Elmer®). […]

[3] = structural variants outside formula (I), read-out: Relative nitrification (%) by ABIL treated with 10 µM compound

Structure (SMILES) | activity at 10 µM [1, 3] | activity at 2.5 µM [2] | further results
O=C(NC1=NCCS1)c1n[nH]c2ccccc12 [Example 111] | 98% | 95% | –
CCN(CCC#N)Cn1nc(Cl)c2ccccc21 [Example 150] | 100% | 100% | –
COC(=O)c1cc(CNC(=O)c2n[nH]c3ccccc23)ccc1OC [Example 100] | 90% | 96% | –
CC1(C)CN(C(=O)c2n[nH]c3ccccc23)CC[S+]1[O-] (centres unmarked) [Example 157] | 100% | 94% | –
O=C1NCCN1c1cccc(NCc2cccc3cn[nH]c23)c1 [Example 116] | 99% | 96% | –
O=C(NCc1ccc(F)cc1C(F)(F)F)c1cccc2cn[nH]c12 [Example 147] | 100% | 92% | –
CC(C)n1ncc2cc(NC(=O)CCc3cc4ccccc4o3)cnc21 [Example 65] | 100% | 100% | –
O=C(Nc1ccc2[nH]ncc2c1)C1(c2ccc(F)cc2)CC1 [Example 162] | 100% | 100% | –
O=C(NCCCSc1ccccc1)c1n[nH]c2ccccc12 [Example 136] | 100% | 96% | –
Cc1nc2c(cnn2C(C)C)cc1C(=O)NC(C)C1CCCO1 (centres unmarked) [Example 90] | 100% | 93% | –
c1cc(CNCCc2nc(C3CC3)cs2)c2[nH]ncc2c1 [Example 130] | 100% | 94% | –
COC(=O)c1n[nH]c2ccc(NS(=O)(=O)c3ccc(Cl)c(Cl)c3)cc12 [Example 101] | 90% | 94% | –
CC(C)n1ncc2cc(C(=O)NCc3ccccc3S(=O)(=O)N3CCCCC3)cnc21 [Example 81] | 100% | 100% | –
CCCC(O)CNCc1cccc2cn[nH]c12 (centres unmarked) [Example 155] | 100% | 100% | –
CCc1cccc(NC(=O)CCc2c(C)nc3c(c(C)nn3C)c2C)c1 [Example 34] | 96% | 99% | –
Cc1ccccc1OCCN(C)C(=O)c1n[nH]c2ccccc12 [Example 148] | 100% | 100% | –
CC(C)n1ncc2cc(C(=O)NCc3ccccc3OC(F)(F)F)cnc21 [Example 42] | 98% | 98% | –
CC(=O)NC(CC(=O)Nc1cnc2c(cnn2C(C)C)c1)c1ccc(Cl)cc1 (centres unmarked) [Example 23] | 91% | 100% | –
O=C(NC1CCc2ccccc21)c1n[nH]c2ccccc12 (centres unmarked) [Example 132] | 100% | 97% | –
CC(C)n1ncc2ccc(NC(=O)NC3CCN(C)C3=O)cc21 (centres unmarked) [Example 140] | 100% | 100% | –
COc1ccc(N2CC(C(=O)Nc3ccc4[nH]ncc4c3)CC2=O)cc1 (centres unmarked) [Example 160] | 100% | 100% | –
O=C(Nc1cccc(/C=C/c2ccccn2)c1)c1n[nH]c2ccccc12 [Example 145] | 100% | 96% | –
Cc1n[nH]c2ncc(CNCc3ccc4c(c3)OCO4)cc12 [Example 70] | 100% | 100% | –
COCCCCCNC(=O)Nc1ccc2[nH]ncc2c1 [Example 128] | 100% | 100% | –

Structure (SMILES) | activity at 10 µM [1, 3] | activity at 2.5 µM [2] | further results
C=CCNC(=O)c1cnc2c(cnn2C(C)C)c1 [Example 89] | 100% | 100% | –
O=C(NCCCCc1ccccc1)c1n[nH]c2ccccc12 [Example 146] | 100% | 96% | –
COCCC1(C(=O)Nc2cnc3[nH]nc(C)c3c2)CCCC1 [Example 49] | 100% | 100% | –
COCCNC(=O)c1cc(-c2ccc(C)cc2)nc2c1cnn2C(C)C [Example 1] | – | – | activity at 10 µM ([1]; 24 h, 24 h, 0% = as strong as 100 µM PTIO, 100% = no inhibition, read-out: ABIL - relative nitrification (%) at 10 µM): -9%; N. viennensis - relative nitrification (%) at 0.5 µM ([2]; 0.5 µM compound, 0% = as strong as 100 µM PTIO, 100% = no inhibition): 52%; N. viennensis - relative nitrification (%) at 5 µM ([2]; 5 µM compound, 0% = as strong as 100 µM PTIO, 100% = no inhibition): 0%; N. viennensis - relative nitrification (%) at 25 µM ([2]; 25 µM compound, 0% = as strong as 100 µM PTIO, 100% = no inhibition): 0%
CC(C)n1ncc2cc(NC(=O)C3(C)CC3(Cl)Cl)cnc21 (centres unmarked) [Example 50] | 100% | 92% | –
Cc1cc(C)nc(-n2nc(C)c3c(C(F)(F)F)cc(-c4cccnc4)nc32)n1 [Example 86] | 100% | 94% | –
CCN(CC1CCOC1)C(=O)c1cnc2c(cnn2C(C)C)c1 (centres unmarked) [Example 29] | 92% | 100% | –
Cc1nc2c(cnn2C(C)C)cc1C(=O)N1CCc2ccccc21 [Example 74] | 100% | 100% | –
O=S(=O)(CCC1CC1)Nc1n[nH]c2cccc(F)c12 [Example 102] | 90% | 100% | –
CC(CNC(=O)c1cccc2[nH]ncc12)CC1(C)OCCO1 (centres unmarked) [Example 110] | 97% | 100% | –
CC1(C)CN(C(=O)c2n[nH]c3ccccc23)CCS1(=O)=O [Example 117] | 99% | 100% | –
CC(C)n1ncc2cc(C(=O)Nc3ccnn3Cc3ccc(Cl)cc3Cl)cnc21 [Example 84] | 100% | 100% | –
Clc1ccc2c(Nc3ccc4[nH]ncc4c3)ncnc2c1 [Example 99] | 90% | 100% | –
O=C(c1n[nH]c2ccccc12)N1CCSCC1 [Example 123] | 100% | 92% | –
CC(CNC(=O)c1cccc2cn[nH]c12)CC1(C)OCCO1 (centres unmarked) [Example 143] | 100% | 100% | –
CC(C)n1ncc2cc(C(=O)N(C)Cc3nc4ccccc4s3)cnc21 [Example 85] | 100% | 100% | –
O=C(CC1CCCCCC1)c1n[nH]c2ccccc12 [Example 119] | 99% | 100% | –
CC(C)n1ncc2cc(C(=O)Nc3ccc(F)cc3F)cnc21 [Example 33] | 94% | 100% | –
Cc1nc2c(c(C)nn2C)c(C)c1CCC(=O)O [Example 36] | 97% | 94% | –
Cc1nn(C)c2ncc(C(=O)NCC3CN(CC(C)C)CCO3)cc12 (centres unmarked) [Example 21] | 90% | 100% | –
Cc1nc2c(cnn2C(C)C)cc1C(=O)N1CCSCC1 [Example 78] | 100% | 100% | –
CC(C)n1ncc2cc(NC(=O)C3CC3(Cl)Cl)cnc21 (centres unmarked) [Example 19] | 90% | 100% | –
CC(NC(=O)C1(NC(=O)c2ccc3[nH]ncc3c2)CCCC1)C1CC1 (centres unmarked) [Example 138] | 100% | 100% | –
COc1ccc(C(O)CNCc2cccc3cn[nH]c23)cc1 (centres unmarked) [Example 154] | 100% | 99% | –
